We go through 16 compounds from patent US8455497B2, “Inhibitors of aspartyl protease” (Vertex Pharmaceuticals Incorporated, priority 1999, dated 2013).

SMILES strings stand for the structures. Some results are limits rather than exact numbers.

The first assay concerns HIV-1 (strain IIIB). Briefly: Antiviral activity assay in MT4 cells (propidium iodide based). Format: cell-based. Conditions: Human immunodeficiency virus 1, IIIB; wild type HIV-1 virus, MT4 cells; read-out: Wildtype virus - IC50. On the procedure: Antiviral Activity Assay in MT4 Cells
Aliquots of the test compounds were serially diluted in medium (RPMI 1640, 10% fetal calf serum (FCS), and gentamycin) in 96-well plates (Costar 3598) using a Cetus Pro/Pette. Exponentially growing MT4 cells were harvested and centrifuged at 1000 rpm for 10 min in a Jouan centrifuge (model CR 4 12). Cell pellets were resuspended in fresh medium (RPMI 1640, 20% FCS, 20% IL-2, and gentamycin) to a density of 5×10^5 cells/ml. Cell aliquots were infected by the addition of HIV-1 (strain IIIB) diluted to give a viral multiplicity of infection of 100×TCID50. A similar cell aliquot was diluted with medium to provide a mock-infected control. Cell infection was allowed to proceed for 1 hr at 37° in a tissue culture incubator with humidified 5% CO2 atmosphere. After the 1 hr incubation the virus/cell suspensions were diluted 6-fold with fresh medium, and 125 μl of the cell suspension was added to each well of the plate containing pre-diluted compound. Plates were then placed in a tissue culture incubator with humidified 5% CO2 for 5 days. At the end of the incubation period, 27 μl of 5% Nonidet-40 was added to each well of the incubation plate. After thorough mixing with a Costar multitip pipetter, 60 μl of the mixture was transferred to filter-bottomed 96-well plates. The plates were analyzed in an automated assay instrument (Screen Machine, Idexx Laboratories). The assay makes use of a propidium iodide dye to estimate the DNA content of each well.
The anti-viral potency in MT-4 cells of the compounds set forth in Tables 1 and 2 was determined using the above technique.
As for `CC(C)(CCCC#N)CN(C[C@@H](O)[C@H](Cc1ccc(OCc2ccccc2)cc1)NC(=O)O[C@H]1CCOC1)S(=O)(=O)c1ccc2c(c1)OCO2` [Compound 307, (3S)-Tetrahydro-3-furanyl (1S,2R)-3-[(1,3-benzodioxol-5-ylsulfonyl)(5-cyano-2,2-dimethylpentyl)amino]-1-[4-(benzyloxy)benzyl]-2-hydroxypropylcarbamate], the IC50 fell in the range of 10 to 100 nM.

The same assay, now with this note: Human immunodeficiency virus 1, MT4, 120 h; MT-4 cells, HIV-1 strain IIIB, 5 days; read-out: IC50 (Antiviral Activity of Compounds of the Invention).
On to `CC(C)CN(C[C@@H](O)[C@H](Cc1ccc(OCC(=O)N2CCOCC2)cc1)NC(=O)OC(C)(C)C)S(=O)(=O)c1ccc2c(c1)OCO2` [Compound 21, Boc methylenedioxybenzenesulfonamide Acetylmorpholine Tethered Product], for which the half-inhibitory concentration (IC50) lay in the range of 10 to 100 nM. As for `CC(C)CN(C[C@@H](O)[C@H](Cc1ccc(OCCn2cccn2)cc1)NC(=O)O[C@H]1CO[C@H]2OCC[C@H]21)S(=O)(=O)c1ccc2c(c1)OCO2` [Compound 57, Bis-THF Methylenedioxybenzenesulfonamide Ethylpyrazole Tethered Product], the IC50 lay within 1 to 10 nM. The same measure, in the same setting: as for `Cc1cc(C)n(COc2ccc(C[C@H](NC(=O)O[C@H]3CO[C@H]4OCC[C@H]43)[C@H](O)CN(CC(C)C)S(=O)(=O)c3ccc4c(c3)OCO4)cc2)n1` [Compound 56, Bis-THF Methylenedioxybenzenesulfonamide 1-methyl-3,5-dimethylpyrazole Tethered Product], the figure is 10 to 100 nM.

The same assay, now with this note: MT-4 cells, HIV-1 strain IIIB, 5 days; read-out: IC50 (Antiviral Activity of Compounds of the Invention).
Take `CC(C)CN(CC(O)C(Cc1ccc(OCCN2CCOCC2)cc1)NC(=O)OC1COC2OCCC12)S(=O)(=O)c1ccc(N)cc1` (stereo not shown) [Compound 29]: the 50% inhibitory concentration (IC50) lay in the range of 10 to 100 nM.

Consider `COCCN(CCOC)CCOc1ccc(CC(NC(=O)OC2CCOC2)C(O)CN(CC(C)(C)CCC#N)S(=O)(=O)c2ccc(N)cc2)cc1` (stereo not shown) [Compound 70], for which the IC50 is over 100 nM. For `COCCN(CCOC)CCOc1ccc(CC(NC(=O)OC(C)(C)C)C(O)CN(CC(C)C)S(=O)(=O)c2cccc(N)c2)cc1` (stereo not shown) [Compound 13], the IC50 was over 100 nM. On the same count and under the same terms, as for `CC(C)(CCC#N)CN(CC(O)C(Cc1ccc(OCc2ccccc2)cc1)NC(=O)OC1COC2OCCC12)S(=O)(=O)c1ccc2c(c1)OCO2` (stereo not shown) [Compound 72], the figure is 1 to 10 nM. Same read-out and setting: as for `COCCN(CCOC)CCOc1ccc(CC(NC(=O)OC2COC3OCCC23)C(O)CN(CC(C)(C)CCC#N)S(=O)(=O)c2ccc3c(c2)OCO3)cc1` (stereo not shown) [Compound 73], the figure is 10 to 100 nM; as for `COCCN(CCOC)CCOc1ccc(CC(NC(=O)OC2COCOC2)C(O)CN(CC(C)C)S(=O)(=O)c2cccc(N)c2)cc1` (stereo not shown) [Compound 25], 10 to 100 nM; as for `CC(C)CN(CC(O)C(Cc1ccc(OCc2ccccc2)cc1)NC(=O)OC1COC2OCCC12)S(=O)(=O)c1ccc2c(c1)OCO2` (stereo not shown) [Compound 46, Bis-THF Methylenedioxybenzenesulfonamide Benzyl Ether], under 1 nM.

Still in this assay, the particulars now being: wild type HIV-1 virus, MT4 cells; read-out: Wildtype virus - IC50.
As for `CC(C)CN(C[C@@H](O)[C@H](Cc1ccc(OCCc2ccsc2)cc1)NC(=O)O[C@H]1CO[C@H]2OCC[C@H]21)S(=O)(=O)c1ccc2c(c1)OCO2` [Compound 208], the IC50 lay in the range of 10 to 100 nM. On the same count and under the same terms, as for `CC(C)CN(C[C@@H](O)[C@H](Cc1ccc(OCc2nccn2Cc2ccccc2)cc1)NC(=O)O[C@H]1CO[C@H]2OCC[C@H]21)S(=O)(=O)c1ccc2c(c1)OCO2` [Compound 394], the figure is 1 to 10 nM; as for `CC(C)CN(C[C@@H](O)[C@H](Cc1ccc(OCc2ccc([N+](=O)[O-])cc2)cc1)NC(=O)O[C@H]1CO[C@H]2OCC[C@H]21)S(=O)(=O)c1ccc2c(c1)OCO2` [Compound 383, (3R,3aS,6aR)-hexahydrofuro[2,3-b]furan-3-yl (1S,2R)-3-[(1,3-benzodioxol-5-ylsulfonyl)(isobutyl)amino]-2-hydroxy 1-{4-[(4-nitrobenzyl)oxy]benzyl}propylcarbamate], 1 to 10 nM. Still for that read-out and setting: then `CC(C)CC(=O)NCCCOc1ccc(C[C@H](NC(=O)O[C@H]2CO[C@H]3OCC[C@H]32)[C@H](O)CN(CC(C)C)S(=O)(=O)c2ccc3c(c2)OCO3)cc1` [Compound 231], with 1 to 10 nM.

Consider `CCOC(=O)NCCOc1ccc(C[C@H](NC(=O)O[C@H]2CO[C@H]3OCC[C@H]32)[C@H](O)CN(CC(C)C)S(=O)(=O)c2ccc3c(c2)OCO3)cc1` [Compound 245], for which the IC50 lay within 1 to 10 nM.

As a reminder, the IC50 is the concentration needed to halve the response being measured.
